Measured values: patent US10364247B2, “Preparation and use of novel protein kinase inhibitors” (Ruijin Hospital Affiliated to Shanghai Jiao Tong University …, priority 2015, dated 2019)

How the values were obtained:
Test in all cases: KINOMEscan competition binding
[1] = target: ABL1(E255K)-phosphorylated (Homo sapiens, UniProt P00519, E255K); details: read-out: Percent Control
How it was run: (§1)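 Primary screen at 10 μM; quantitative competition with immobilized active-site ligand; % Ctrl reported, stronger hits giving lower numbers.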

[2] = target: ABL1(F317I)-phosphorylated (Homo sapiens, UniProt P00519, F317I); details: read-out: Percent Control
How it was run: as §1

[3] = target: ABL1(F317L)-phosphorylated (Homo sapiens, UniProt P00519, F317L); details: read-out: Percent Control
How it was run: as §1

[4] = target: ABL1(Q252H)-phosphorylated (Homo sapiens, UniProt P00519, Q252H); details: read-out: Percent Control
How it was run: as §1

ABL1-phosphorylated = ABL1-phosphorylated (Homo sapiens, UniProt P00519); details: read-out: Percent Control
How it was run: as §1

ALK = target: T1, ALK (Homo sapiens, UniProt Q9UM73); details: read-out: Percent Control
T1 construct: purchased KINOMEscan (screening service)
How it was run: as §1

AURKC = target: T2, AURKC (Homo sapiens, UniProt Q9UQB9); details: read-out: Percent Control
T2 construct: purchased KINOMEscan (screening service)
How it was run: as §1

BRAF = BRAF (Homo sapiens, UniProt P15056); details: read-out: Percent Control
Sequence of BRAF (P15056 whole entry): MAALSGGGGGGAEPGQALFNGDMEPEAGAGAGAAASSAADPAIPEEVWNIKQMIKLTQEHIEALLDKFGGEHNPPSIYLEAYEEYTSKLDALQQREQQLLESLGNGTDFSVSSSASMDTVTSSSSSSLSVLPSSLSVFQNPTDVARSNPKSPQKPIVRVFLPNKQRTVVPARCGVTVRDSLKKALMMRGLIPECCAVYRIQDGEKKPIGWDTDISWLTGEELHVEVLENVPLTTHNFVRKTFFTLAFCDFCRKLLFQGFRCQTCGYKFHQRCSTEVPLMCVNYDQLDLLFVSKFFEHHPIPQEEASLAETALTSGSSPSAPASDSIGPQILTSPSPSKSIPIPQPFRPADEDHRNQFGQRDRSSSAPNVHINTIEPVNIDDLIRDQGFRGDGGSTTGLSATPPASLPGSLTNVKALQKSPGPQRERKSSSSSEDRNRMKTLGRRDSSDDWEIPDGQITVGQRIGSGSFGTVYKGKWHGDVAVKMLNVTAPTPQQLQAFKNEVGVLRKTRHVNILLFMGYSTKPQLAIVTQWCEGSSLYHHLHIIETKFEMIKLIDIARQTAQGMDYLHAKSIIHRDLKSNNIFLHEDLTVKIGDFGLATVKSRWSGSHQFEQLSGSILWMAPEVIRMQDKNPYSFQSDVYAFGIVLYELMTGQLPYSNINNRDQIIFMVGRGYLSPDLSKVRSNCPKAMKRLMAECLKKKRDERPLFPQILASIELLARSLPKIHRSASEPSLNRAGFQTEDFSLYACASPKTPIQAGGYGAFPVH
How it was run: as §1

BRK = BRK (Homo sapiens, UniProt Q13882); details: BRK (Entrez PTK6), read-out: Percent Control
How it was run: as §1

BTK = target: T3, BTK (Homo sapiens, UniProt Q06187); details: read-out: Percent Control
T3 construct: purchased KINOMEscan (panel service)
T3 sequence (Q06187 whole entry): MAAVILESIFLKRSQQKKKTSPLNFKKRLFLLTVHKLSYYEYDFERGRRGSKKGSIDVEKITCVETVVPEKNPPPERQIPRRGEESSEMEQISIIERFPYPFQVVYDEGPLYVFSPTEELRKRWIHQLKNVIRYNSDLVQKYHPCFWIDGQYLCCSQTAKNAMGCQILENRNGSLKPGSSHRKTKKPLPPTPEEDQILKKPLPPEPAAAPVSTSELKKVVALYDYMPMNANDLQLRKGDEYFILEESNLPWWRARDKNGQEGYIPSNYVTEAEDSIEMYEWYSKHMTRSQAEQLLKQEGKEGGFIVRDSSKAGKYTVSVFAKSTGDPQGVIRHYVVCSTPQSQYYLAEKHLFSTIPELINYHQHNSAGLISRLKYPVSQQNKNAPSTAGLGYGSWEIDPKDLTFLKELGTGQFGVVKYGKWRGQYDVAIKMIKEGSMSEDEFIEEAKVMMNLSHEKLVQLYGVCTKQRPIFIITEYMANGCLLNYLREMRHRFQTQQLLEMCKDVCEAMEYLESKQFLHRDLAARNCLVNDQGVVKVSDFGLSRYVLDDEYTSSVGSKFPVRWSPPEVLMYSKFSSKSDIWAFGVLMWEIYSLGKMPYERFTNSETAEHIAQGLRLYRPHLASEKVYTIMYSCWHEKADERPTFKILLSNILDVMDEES
How it was run: as §1

CIT = target: T4, CIT (Homo sapiens, UniProt O14578); details: read-out: Percent Control
T4 construct: purchased KINOMEscan (panel service)
How it was run: as §1

DDR2 = target: T5, DDR2 (Homo sapiens, UniProt Q16832); details: read-out: Percent Control
T5 construct: purchased KINOMEscan (screening service)
How it was run: as §1

EGFR(E746-A750del) = EGFR(E746-A750del) (Homo sapiens, UniProt P00533, DEL746-750); details: read-out: Percent Control
How it was run: as §1

[5] = target: EGFR(L747-S752del, P753S) (Homo sapiens, UniProt P00533, DEL747-752/P753S); details: read-out: Percent Control
How it was run: as §1

EPHB6 = EPHB6 (Homo sapiens, UniProt O15197); details: read-out: Percent Control
How it was run: as §1

ERBB4 = ERBB4 (Homo sapiens, UniProt Q15303); details: read-out: Percent Control
How it was run: as §1

FGFR2 = FGFR2 (Homo sapiens, UniProt P21802); details: read-out: Percent Control
Sequence of FGFR2 (P21802 22-821): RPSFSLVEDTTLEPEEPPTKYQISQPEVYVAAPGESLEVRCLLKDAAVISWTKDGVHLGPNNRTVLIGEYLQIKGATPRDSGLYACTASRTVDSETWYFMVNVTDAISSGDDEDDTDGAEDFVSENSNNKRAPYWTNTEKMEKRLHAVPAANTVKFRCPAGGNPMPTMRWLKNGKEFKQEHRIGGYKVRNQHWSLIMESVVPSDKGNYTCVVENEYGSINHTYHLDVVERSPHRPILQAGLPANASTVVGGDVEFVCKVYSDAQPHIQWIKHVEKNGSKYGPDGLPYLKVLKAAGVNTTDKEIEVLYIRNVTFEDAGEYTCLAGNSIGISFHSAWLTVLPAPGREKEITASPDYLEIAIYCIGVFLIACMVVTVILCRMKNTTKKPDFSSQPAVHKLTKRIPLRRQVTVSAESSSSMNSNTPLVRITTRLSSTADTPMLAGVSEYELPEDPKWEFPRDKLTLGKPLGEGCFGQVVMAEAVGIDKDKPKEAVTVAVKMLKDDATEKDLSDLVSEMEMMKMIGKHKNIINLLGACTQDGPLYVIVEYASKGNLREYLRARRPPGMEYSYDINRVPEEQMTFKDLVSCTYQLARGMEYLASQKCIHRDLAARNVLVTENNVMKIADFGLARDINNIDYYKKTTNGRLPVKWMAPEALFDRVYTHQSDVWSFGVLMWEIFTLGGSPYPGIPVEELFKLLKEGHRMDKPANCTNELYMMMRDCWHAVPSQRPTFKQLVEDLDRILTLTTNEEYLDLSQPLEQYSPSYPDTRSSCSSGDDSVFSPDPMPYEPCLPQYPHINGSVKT
How it was run: as §1

FGFR4 = target: T6, FGFR4 (Homo sapiens, UniProt P22455); details: read-out: Percent Control
T6 construct: purchased KINOMEscan (screening platform)
How it was run: as §1

IKK-beta = target: T7, IKK-beta (Homo sapiens, UniProt O14920); details: IKK-beta (Entrez IKBKB), read-out: Percent Control
T7 construct: purchased KINOMEscan (screening service)
How it was run: as §1

JNK1 = target: T8, JNK1 (Homo sapiens, UniProt P45983); details: JNK1 (Entrez MAPK8), read-out: Percent Control
T8 construct: purchased KINOMEscan (screening platform)
How it was run: as §1

JNK2 = JNK2 (Homo sapiens, UniProt P45984); details: JNK2 (Entrez MAPK9), read-out: Percent Control
How it was run: as §1

KIT(D816H) = KIT(D816H) (Homo sapiens, UniProt P10721, D816H); details: read-out: Percent Control
How it was run: as §1

MAP4K2 = MAP4K2 (Homo sapiens, UniProt Q12851); details: read-out: Percent Control
How it was run: as §1

MAP4K5 = MAP4K5 (Homo sapiens, UniProt Q9Y4K4); details: read-out: Percent Control
Sequence of MAP4K5 (Q9Y4K4 whole entry): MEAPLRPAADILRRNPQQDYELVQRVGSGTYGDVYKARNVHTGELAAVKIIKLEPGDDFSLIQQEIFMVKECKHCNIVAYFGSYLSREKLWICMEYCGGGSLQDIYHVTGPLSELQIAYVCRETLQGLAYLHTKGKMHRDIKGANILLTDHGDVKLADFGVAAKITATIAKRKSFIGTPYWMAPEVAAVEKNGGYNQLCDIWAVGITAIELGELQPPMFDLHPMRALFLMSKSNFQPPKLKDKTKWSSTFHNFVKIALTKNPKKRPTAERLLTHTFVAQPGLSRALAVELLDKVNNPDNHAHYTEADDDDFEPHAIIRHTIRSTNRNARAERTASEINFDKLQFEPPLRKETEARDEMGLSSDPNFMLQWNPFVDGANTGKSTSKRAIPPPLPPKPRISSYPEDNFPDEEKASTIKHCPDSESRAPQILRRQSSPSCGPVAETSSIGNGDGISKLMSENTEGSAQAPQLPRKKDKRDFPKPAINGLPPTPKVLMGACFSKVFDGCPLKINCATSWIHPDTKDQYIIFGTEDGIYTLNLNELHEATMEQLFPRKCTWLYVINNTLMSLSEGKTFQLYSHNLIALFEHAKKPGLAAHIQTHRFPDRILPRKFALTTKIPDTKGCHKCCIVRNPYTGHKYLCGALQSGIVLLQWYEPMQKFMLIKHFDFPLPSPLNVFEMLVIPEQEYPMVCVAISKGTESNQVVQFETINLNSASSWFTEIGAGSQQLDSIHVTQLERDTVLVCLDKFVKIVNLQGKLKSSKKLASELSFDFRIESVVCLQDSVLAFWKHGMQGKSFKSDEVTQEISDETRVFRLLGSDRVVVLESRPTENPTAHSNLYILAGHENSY
How it was run: as §1

MERTK = target: T9, MERTK (Homo sapiens, UniProt Q12866); details: read-out: Percent Control
T9 construct: purchased KINOMEscan (screening service)
How it was run: as §1

NEK4 = target: T10, NEK4 (Homo sapiens, UniProt P51957); details: read-out: Percent Control
T10 construct: purchased KINOMEscan (screening platform)
How it was run: as §1

PDGFRA = PDGFRA (Homo sapiens, UniProt P16234); details: read-out: Percent Control
Sequence of PDGFRA (P16234 24-1089): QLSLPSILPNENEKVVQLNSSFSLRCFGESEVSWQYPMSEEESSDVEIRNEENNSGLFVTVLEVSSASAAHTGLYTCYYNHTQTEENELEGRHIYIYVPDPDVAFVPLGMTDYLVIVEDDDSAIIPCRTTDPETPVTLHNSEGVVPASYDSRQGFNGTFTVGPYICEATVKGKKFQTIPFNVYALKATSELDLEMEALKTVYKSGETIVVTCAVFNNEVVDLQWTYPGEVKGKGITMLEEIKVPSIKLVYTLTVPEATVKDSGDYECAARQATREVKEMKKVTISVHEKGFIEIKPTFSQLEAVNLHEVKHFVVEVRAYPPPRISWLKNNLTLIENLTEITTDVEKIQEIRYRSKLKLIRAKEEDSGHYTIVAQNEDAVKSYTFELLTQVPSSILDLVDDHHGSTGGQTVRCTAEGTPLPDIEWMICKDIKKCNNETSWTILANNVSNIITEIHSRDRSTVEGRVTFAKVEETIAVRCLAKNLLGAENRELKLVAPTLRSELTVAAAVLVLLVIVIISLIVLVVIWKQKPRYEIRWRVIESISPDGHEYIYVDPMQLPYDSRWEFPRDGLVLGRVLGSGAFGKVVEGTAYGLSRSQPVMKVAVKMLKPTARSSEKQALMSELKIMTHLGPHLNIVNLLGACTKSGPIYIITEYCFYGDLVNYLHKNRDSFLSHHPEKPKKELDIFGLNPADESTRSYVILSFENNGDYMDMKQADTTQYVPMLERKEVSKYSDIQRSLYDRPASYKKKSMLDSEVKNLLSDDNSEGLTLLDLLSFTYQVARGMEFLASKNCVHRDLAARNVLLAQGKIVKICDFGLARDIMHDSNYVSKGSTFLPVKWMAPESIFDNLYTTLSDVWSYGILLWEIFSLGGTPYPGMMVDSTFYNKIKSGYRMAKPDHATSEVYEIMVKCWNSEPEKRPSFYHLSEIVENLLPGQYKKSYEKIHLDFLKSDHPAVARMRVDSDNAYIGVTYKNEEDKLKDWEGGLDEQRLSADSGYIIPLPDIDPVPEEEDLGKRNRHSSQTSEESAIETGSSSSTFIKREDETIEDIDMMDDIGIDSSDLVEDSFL
How it was run: as §1

RAF1 = target: T11, RAF1 (Homo sapiens, UniProt P04049); details: read-out: Percent Control
T11 construct: purchased KINOMEscan (screening service)
How it was run: as §1

RET(M918T) = RET(M918T) (Homo sapiens, UniProt P07949, M918T); details: read-out: Percent Control
How it was run: as §1

RET(V804L) = target: T12, RET(V804L) (Homo sapiens, UniProt P07949, V804L); details: read-out: Percent Control
T12 construct: purchased KINOMEscan (panel service)
How it was run: as §1

SRC = target: T13, SRC (Homo sapiens, UniProt P12931); details: read-out: Percent Control
T13 construct: purchased KINOMEscan (panel service)
T13 sequence (P12931 whole entry): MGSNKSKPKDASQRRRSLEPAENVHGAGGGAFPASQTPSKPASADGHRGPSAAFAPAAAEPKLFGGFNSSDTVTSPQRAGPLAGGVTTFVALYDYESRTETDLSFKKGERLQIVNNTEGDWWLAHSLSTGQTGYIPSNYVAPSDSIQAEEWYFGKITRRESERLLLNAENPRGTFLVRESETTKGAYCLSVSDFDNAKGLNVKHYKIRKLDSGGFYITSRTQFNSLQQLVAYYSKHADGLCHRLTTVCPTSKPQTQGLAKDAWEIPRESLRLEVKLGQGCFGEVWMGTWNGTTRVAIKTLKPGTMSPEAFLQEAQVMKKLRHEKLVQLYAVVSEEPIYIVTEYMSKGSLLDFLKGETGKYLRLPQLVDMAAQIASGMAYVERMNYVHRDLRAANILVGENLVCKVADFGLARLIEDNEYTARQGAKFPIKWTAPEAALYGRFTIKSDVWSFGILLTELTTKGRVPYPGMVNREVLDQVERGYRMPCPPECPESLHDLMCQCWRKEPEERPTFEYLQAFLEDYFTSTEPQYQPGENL
How it was run: as §1

TAK1 = target: T14, TAK1 (Homo sapiens, UniProt O43318); details: TAK1 (Entrez MAP3K7), read-out: Percent Control
T14 construct: purchased KINOMEscan (panel service)
How it was run: as §1

TAOK2 = target: T15, TAOK2 (Homo sapiens, UniProt Q9UL54); details: read-out: Percent Control
T15 construct: purchased KINOMEscan (screening service)
How it was run: as §1

TNK1 = target: T16, TNK1 (Homo sapiens, UniProt Q13470); details: read-out: Percent Control
T16 construct: purchased KINOMEscan (screening service)
How it was run: as §1

TNK2 = TNK2 (Homo sapiens, UniProt Q07912); details: read-out: Percent Control
How it was run: as §1

TRPM6 = target: T17, TRPM6 (Homo sapiens, UniProt Q9BX84); details: read-out: Percent Control
T17 construct: purchased KINOMEscan (screening platform)
T17 sequence (Q9BX84 1750-1980 limits assumed): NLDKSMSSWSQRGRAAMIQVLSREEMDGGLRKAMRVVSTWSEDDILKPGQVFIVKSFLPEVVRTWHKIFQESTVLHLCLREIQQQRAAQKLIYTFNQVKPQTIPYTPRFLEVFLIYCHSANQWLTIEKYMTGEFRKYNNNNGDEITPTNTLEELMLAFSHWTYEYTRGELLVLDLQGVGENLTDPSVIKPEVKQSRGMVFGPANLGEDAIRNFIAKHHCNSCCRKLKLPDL
How it was run: as §1

YES = target: T18, YES (Homo sapiens, UniProt P07947); details: YES (Entrez YES1), read-out: Percent Control
T18 construct: purchased KINOMEscan (panel service)
How it was run: as §1

Work on `Cc1ccc(Nc2ncc3c(n2)N(C)CN(c2cc(NC(=O)c4cccc(C(F)(F)F)c4)ccc2C)C3)cn1` [IA-9, N-(4-methyl-3-(1-methyl-7-((6-methylpyridin-3-yl)amino)-1,4-dihydropyrimido[4,5-d]pyrimidin-3(2H)-yl)phenyl)-3-(trifluoromethyl)benzamide] yielded a remaining binding at 10 µM [1] of 1.2%, a remaining binding at 10 µM [2] of 4.1% and a remaining binding at 10 µM [3] of 3.2%. For the same molecule, the remaining binding at 10 µM [4] was 0.2%, the remaining binding at 10 µM (ABL1-phosphorylated) was 0.3% and the remaining binding at 10 µM (ALK) was 22%. It also gave a remaining binding at 10 µM (AURKC) of 6.9%, a remaining binding at 10 µM (BRAF) of 0.5% and a remaining binding at 10 µM (BRK) of 0.9%. For the same molecule, the remaining binding at 10 µM (BTK) was 0.15%, the remaining binding at 10 µM (CIT) was 0.1% and the remaining binding at 10 µM (DDR2) was 9.1%. For the same molecule, the remaining binding at 10 µM (EGFR(E746-A750del)) was 2.3%, the remaining binding at 10 µM [5] was 0% and the remaining binding at 10 µM (EPHB6) was 0.3%. For the same molecule, the remaining binding at 10 µM (ERBB4) was 0%, the remaining binding at 10 µM (FGFR2) was 2.7% and the remaining binding at 10 µM (FGFR4) was 25%. It also gave a remaining binding at 10 µM (IKK-beta) of 14%, a remaining binding at 10 µM (JNK1) of 28% and a remaining binding at 10 µM (JNK2) of 0.7%. For the same molecule, the remaining binding at 10 µM (KIT(D816H)) was 5.4%, the remaining binding at 10 µM (MAP4K2) was 4.6% and the remaining binding at 10 µM (MAP4K5) was 2.5%. For the same molecule, the remaining binding at 10 µM (MERTK) was 7%, the remaining binding at 10 µM (NEK4) was 30% and the remaining binding at 10 µM (PDGFRA) was 1.6%. The remaining binding at 10 µM (RAF1) was 12%, the remaining binding at 10 µM (RET(M918T)) was 0% and the remaining binding at 10 µM (RET(V804L)) was 0%. For the same molecule, the remaining binding at 10 µM (SRC) was 0.15%, the remaining binding at 10 µM (TAK1) was 0.1% and the remaining binding at 10 µM (TAOK2) was 15%. The remaining binding at 10 µM (TNK1) was 12%, the remaining binding at 10 µM (TNK2) was 2.4% and the remaining binding at 10 µM (TRPM6) was 26%. For the same molecule, the remaining binding at 10 µM (YES) was 0.05%.
